Experimental data as given in patent publication US4272437A, “Antibacterial agents, and 4-thio azetidinone intermediates” (priority 1979, dated 1981).
Converted amounts (≈) assume the structure as drawn. Read-outs that look alike come from different tables or passages of the source.

How the values were obtained:
[1] = system: Staph. aureus (Meth-Res) A-15097; assay: MIC, tube dilution, Staphylococcus aureus A15097 (Meth-Res); type: cell-based; settings: Staphylococcus aureus, read-out: Minimum Inhibitory Concentration (M.I.C.), Staph. aureus A15097 (Meth-Res); overnight 37° C.
Text: (§1) Representative compounds of the present invention were subjected to in vitro antibiotic screening against a variety of microorganisms.

Ps. aeruginosa A-9843A = assay: MIC, tube dilution, Pseudomonas aeruginosa A9843A; type: cell-based; settings: Pseudomonas aeruginosa, A9843A, read-out: Minimum Inhibitory Concentration (M.I.C.), Pseudomonas aeruginosa A9843A; overnight 37° C.
Text: as §1

E. coli A-20341-1 = assay: MIC, tube dilution, Escherichia coli A20341-1; type: cell-based; settings: Escherichia coli, A203411; E. coli A20341-1; overnight 37° C.; read-out: Minimum Inhibitory Concentration (M.I.C.)
Text: as §1

Ent. cloacae A-9659 = assay: MIC, tube dilution, Enterobacter cloacae A9659; type: cell-based; settings: Enterobacter cloacae, A9659, Enterobacter cloacae A9659; overnight 37° C.; read-out: Minimum Inhibitory Concentration (M.I.C.)
Text: as §1

Pr. vulgaris A-9716 = assay: MIC, tube dilution, Proteus vulgaris / Proteus mirabilis A9716; type: cell-based, Proteus vulgaris (name changed to Proteus mirabilis); settings: Proteus vulgaris, overnight 37° C.
Text: as §1

[2] = system: Staph. aureus A-9537 and 50% serum; assay: MIC, tube dilution, Staph. aureus A9537 + 50% serum; type: cell-based, Staphylococcus aureus; settings: Staphylococcus aureus, overnight 37° C., read-out: Minimum Inhibitory Concentration (M.I.C.)
Text: as §1

Pr. morganii A-15153 = assay: MIC, tube dilution, Proteus morganii A15153; type: cell-based; settings: Morganella morganii, A15153, Proteus morganii A15153; overnight 37° C.; read-out: Minimum Inhibitory Concentration (M.I.C.)
Text: as §1

Ps. aeruginosa A-21213 = assay: MIC, tube dilution, Pseudomonas aeruginosa A21213; type: cell-based; settings: Pseudomonas aeruginosa A21213; overnight 37° C.; read-out: Minimum Inhibitory Concentration (M.I.C.)
Text: as §1

K. pneumoniae A-15130 = assay: MIC, tube dilution, Klebsiella pneumoniae A15130; type: cell-based; settings: Klebsiella pneumoniae, A15130, K. pneumoniae A15130; overnight 37° C.; read-out: Minimum Inhibitory Concentration (M.I.C.)
Text: as §1

Str. faecalis A-20688 = assay: MIC, tube dilution, Streptococcus faecalis A20688; type: cell-based; settings: Enterococcus faecalis, A20688, Str. faecalis A20688; overnight 37° C.; read-out: Minimum Inhibitory Concentration (M.I.C.)
Text: as §1

Proteus rettgeri A21203 = assay: MIC, tube dilution, Proteus rettgeri A21203; type: cell-based; settings: Providencia rettgeri, overnight 37° C., read-out: Minimum Inhibitory Concentration (M.I.C.)
Text: as §1

Ser. marcescens A-20019 = assay: MIC, tube dilution, Serratia marcescens A20019; type: cell-based; settings: Serratia marcescens, A20019, Serratia marcescens A20019; overnight 37° C.; read-out: Minimum Inhibitory Concentration (M.I.C.)
Text: as §1

Str. pyogenes A-9604 = assay: MIC, tube dilution, Streptococcus pyogenes A9604; type: cell-based; settings: Streptococcus pyogenes, A9604, Str. pyogenes A9604; overnight 37° C., Nutrient Broth; read-out: Minimum Inhibitory Concentration (M.I.C.)
Text: as §1

[3] = system: Staph. aureus (Pen-Res) A-9606; assay: MIC, tube dilution, Staphylococcus aureus A9606 (Pen-Res); type: cell-based; settings: Staphylococcus aureus, overnight 37° C.
Text: as §1

Ent. cloacae A-9656 = assay: MIC, tube dilution, Enterobacter cloacae A9656; type: cell-based; settings: overnight 37° C., read-out: Minimum Inhibitory Concentration (M.I.C.)
Text: as §1

Staph. aureus A-9537 = assay: MIC, tube dilution, Staphylococcus aureus A9537; type: cell-based; settings: Staphylococcus aureus, A9537, Staph. aureus A9537; overnight 37° C., Nutrient Broth; read-out: Minimum Inhibitory Concentration (M.I.C.)
Text: as §1

E. coli A-15119 = assay: MIC, tube dilution, Escherichia coli A15119; type: cell-based; settings: Escherichia coli, A15119, E. coli A15119; overnight 37° C.; read-out: Minimum Inhibitory Concentration (M.I.C.)
Text: as §1

Str. pneumoniae A-9585 = assay: MIC, tube dilution, Streptococcus pneumoniae A9585; type: cell-based; settings: Streptococcus pneumoniae, A9585, Str. pneumoniae A9585; overnight 37° C., Nutrient Broth; read-out: Minimum Inhibitory Concentration (M.I.C.)
Text: as §1

[4] = system: Klebsiella species A20468; assay: MIC, tube dilution, Klebsiella species A20468; type: cell-based; settings: Klebsiella species (K. pneumoniae) A20468; overnight 37° C.; read-out: Minimum Inhibitory Concentration (M.I.C.)
Text: as §1

Pr. mirabilis A-9900 = assay: MIC, tube dilution, Proteus mirabilis A9900; type: cell-based; settings: Proteus mirabilis, A9900, Proteus mirabilis A9900; overnight 37° C.; read-out: Minimum Inhibitory Concentration (M.I.C.)
Text: as §1

[5] = A9716, read-out: Minimum Inhibitory Concentration (M.I.C.), Proteus vulgaris / Proteus mirabilis A9716
[6] = read-out: Minimum Inhibitory Concentration (M.I.C.), Staph. aureus A9606 (Pen-Res)
[7] = A9716, Proteus vulgaris / Proteus mirabilis A9716, read-out: Minimum Inhibitory Concentration (M.I.C.)
[8] = A21203, Proteus rettgeri A21203
[9] = Staph. aureus A9606 (Pen-Res), read-out: Minimum Inhibitory Concentration (M.I.C.)

| Structure (SMILES) | MIC [1] [µg/mL] | MIC (Ps. aeruginosa A-9843A) [µg/mL] | MIC (E. coli A-20341-1) [µg/mL] | MIC (Ent. cloacae A-9659) [µg/mL] | MIC (Pr. vulgaris A-9716; [5]) [µg/mL] | MIC [2] [µg/mL] | MIC (Pr. morganii A-15153) [µg/mL] | MIC (Ps. aeruginosa A-21213) [µg/mL] | MIC (K. pneumoniae A-15130) [µg/mL] | MIC (Str. faecalis A-20688) [µg/mL] | MIC (Proteus rettgeri A21203; Proteus rettgeri A21203) [µg/mL] | MIC (Ser. marcescens A-20019) [µg/mL] | MIC (Str. pyogenes A-9604) [µg/mL] | MIC [3, 6] [µg/mL] | MIC (Ent. cloacae A-9656; Enterobacter cloacae A9656) [µg/mL] | MIC (Staph. aureus A-9537) [µg/mL] | MIC (E. coli A-15119) [µg/mL] | MIC (Str. pneumoniae A-9585) [µg/mL] | MIC [4] [µg/mL] | MIC (Pr. mirabilis A-9900) [µg/mL] | other results |
| --- | --- | --- | --- | --- | --- | --- | --- | --- | --- | --- | --- | --- | --- | --- | --- | --- | --- | --- | --- | --- | --- |
| O=C(O)C1=C(Cc2cscn2)SC2CC(=O)N12 (stereo not shown) [Example 18, 2-(4'-Thiazolyl)methylpenem-3-carboxylic Acid] | > 125 | 125 (≈ 466 µM) | > 125 | > 125 | 125 (≈ 466 µM) | > 63 | 125 (≈ 466 µM) | 125 (≈ 466 µM) | > 125 | > 125 | 125 (≈ 466 µM) | > 125 | > 125 | > 125 | > 125 | 125 (≈ 466 µM) | > 125 | 125 (≈ 466 µM) | 125 (≈ 466 µM) | > 125 | – |
| O=C(O)C1=C(C2CCC2)SC2CC(=O)N12 (stereo not shown) [Example 21, 2-Cyclobutylpenem-3-carboxylic Acid] | > 125 | 125 (≈ 555 µM) | 125 (≈ 555 µM) | 16 (≈ 71 µM) | – | > 63 | 16 (≈ 71 µM) | 125 (≈ 555 µM) | 16 (≈ 71 µM) | 16 (≈ 71 µM) | – | 16 (≈ 71 µM) | 1 (≈ 4.44 µM) | – | – | 0.13 (≈ 0.577 µM) | 4 (≈ 17.8 µM) | 0.13 (≈ 0.577 µM) | > 125 | 2 (≈ 8.88 µM) | MIC (Pr. vulgaris A-9716; [7]): 2 µg/mL (≈ 8.88 µM); MIC (Proteus rettgeri A21203; [8]): 4 µg/mL (≈ 17.8 µM); MIC [3, 9]: 8 µg/mL (≈ 35.5 µM); MIC (Ent. cloacae A-9656; Enterobacter cloacae, A9656, Enterobacter cloacae A9656): 32 µg/mL (≈ 142 µM) |
| CCOP(=O)(CCC1=C(C(=O)O)N2C(=O)CC2S1)OCC (stereo not shown) [Preparation 25, 2'-(2'-Diethylphosphono-1'-ethyl)penem-3-carboxylic Acid] | 4 (≈ 11.9 µM) | 125 (≈ 373 µM) | 2 (≈ 5.96 µM) | 16 (≈ 47.7 µM) | 63 (≈ 188 µM) | 8 | 63 (≈ 188 µM) | > 125 | 125 (≈ 373 µM) | 125 (≈ 373 µM) | 32 (≈ 95.4 µM) | 63 (≈ 188 µM) | > 125 | 32 (≈ 95.4 µM) | 16 (≈ 47.7 µM) | 1 (≈ 2.98 µM) | 8 (≈ 23.9 µM) | 125 (≈ 373 µM) | 4 (≈ 11.9 µM) | 8 (≈ 23.9 µM) | – |
| Nc1ccccc1CC1=C(C(=O)O)N2C(=O)CC2S1 (stereo not shown) [Example 45, Sodium 2-(2'-Aminophenyl)methylpenem-3-carboxylate] | 125 | 125 | 125 | 125 | – | 63 | 125 | 125 | 125 | 125 | – | 125 | 1 | – | 125 | 1 | 125 | 0.5 | 125 | 32 | MIC (Pr. vulgaris A-9716; [7]): 63 µg/mL; MIC (Proteus rettgeri A21203; [8]): 63 µg/mL; MIC [3, 9]: 4 µg/mL |
| CCCCC1=C(C(=O)[O-])N2C(=O)C[C@H]2S1.[Na+] [Preparation 24, Sodium 2-butylpenem-3-carboxylate] | 125 | 125 | > 125 | 63 | 2 | > 63 | 16 | 125 | 63 | 63 | 8 | 32 | 1 | 4 | 63 | 0.13 | 16 | 0.25 | > 125 | 2 | – |
